Patent publication US20220096515A1, “Methods and Formulations for Preventing Neurological or Psychiatric Disorders” (Huntington Medical Research Institutes, priority 2020, published 2022)

How the values were obtained:
[1] = tested on: P2X4; assay: P2X4 mRNA and protein expression in endothelial cells after prenatal treatment; format: in vivo, mouse; settings: after six-day treatment paradigm
Description: Primary culture of endothelial cells and endothelial cell staining: Embryonic brains were dissected under a stereo-microscope, after the NAD^+ treatment paradigm and the telencephalon was removed. Pial membranes were peeled off. Telencephalon without pial membranes from the periventricular region was pooled. Purity of endothelial cell cultures was established with endothelial cell markers and determined to be one hundred percent. Isolation and culture of endothelial cells were performed according to published methodology. Periventricular endothelial cells were prepared from CD1 (wild type), saline-treated Gabrb3^fl/fl, saline-treated Gabrb3^ECKO, and NAD^+-treated Gabrb3^ECKO embryos. […]
Quantitative real-time PCR: RT was performed by using iScript Reverse Transcription Supermix kit (Bio-Rad). […] The relative gene expression and subsequent fold changes among different samples were determined according to published methodology.
An important aspect that influences endothelial cell proliferation is Ca^2+ influx, which is important for cell cycle progression in the neocortex. […] Therefore, P2X4 expression at both mRNA and protein levels in periventricular endothelial cells were evaluated, prepared after the six-day saline and NAD^+ treatment paradigm (FIGS. 11J-11O). […]

[2] = tested on: cerebral cortex of Gabrb3^ECKO mice; assay: In vivo multiphoton laser-scanning microscopy of cortical microvasculature; design: species or system mouse
Description: In vivo imaging of brain microvasculature by multiphoton laser-scanning microscopy: In vivo imaging of the brain vasculature in cranial window bearing mice was performed as described previously. Briefly, a cranial window was implanted by removing circular area of skull and dura. Then, the window was sealed with a 7 mm cover glass glued to the bone. For the measurement of red blood cell (RBC) velocity and blood vessel diameter, we used multiphoton laser-scanning microscopy (MPLSM). To avoid potential tissue/vessel alteration caused by the window implantation procedure, we performed imaging at least 10 days after cranial window implantation. For imaging, mice were anesthetized with ketamine/xylazine, then tetramethylrhodamine (TAMRA)-dextran (MW 500,000) was administrated through retro-orbital injection. Using TAMRA-dextran contrast enhanced angiography, region of interest is first identified. Since the intravenously injected dye labels only the blood plasma, RBCs appear as dark patches moving within the vessel lumen. Centerline RBC velocity was measured by repetitively scanning a line along the central axis of a single blood vessel (x-t) and enabling the tracking of the motion of these dark patches. The space-time image produced by the line-scan contained diagonal dark streaks formed by moving RBCs, with a slope that was inversely proportional to the centerline RBC velocity. This space-time image was then computationally processed using Matlab and Python to extract the gradient of each streak, corresponding to the RBC velocity. Briefly, diagonal filters of varying gradients were tested for each streak until the gradient that fit best was found. […] The blood flow rate was determined through the following formula: […]
Therefore, vessel diameters, red blood cell (RBC) velocity, and blood flow were evaluated in the cerebral cortex of saline-treated Gabrb3^fl/fl mice, saline-treated Gabrb3^ECKO mice, and NAD^+-treated Gabrb3^ECKO mice (FIGS. 14A-14F) using multiphoton laser-scanning microscopy (MPLSM) and a sophisticated cranial window model. […]

[3] = adult, after prenatal treatment

Structure (SMILES): NC(=O)c1ccc[n+]([C@@H]2O[C@H](COP(=O)([O-])OP(=O)(O)OC[C@H]3O[C@@H](n4cnc5c(N)ncnc54)[C@H](O)[C@@H]3O)[C@@H](O)[C@H]2O)c1 [NAD^+]
- P2X4 mRNA and protein expression [1]: its expression was rescued
- RBC velocity in capillaries [2, 3]: reversed
- diameter of capillaries and collecting venules [2, 3]: morphological alteration was rescued
- blood flow in capillaries and collecting venules ([2]; vs saline-treated Gabrb3^ECKO mice): significantly reduced
